# Experiments:
# [1] = mouse conditioned active avoidance response model; format: in vivo
# From the text: (Pfeiffer & Jenney, Ann. N.Y. Acad. Sci., 66:[…], 1957; Maffii, J. Pharm. Pharmacol., 11: 129-139, 1959; Cook & Weidley, Ann; N.Y. Acad. Sci., 66: […], 1957; Janke, Handbook of Experimental Pharmacology, Vol. 55/I, New York: Plenum Press, 1978).
# [2] = test system: metabotropic glutamate receptors; assay: selective displacement of 1S,3R-ACPD-sensitive [^3 H]glutamate binding to rat brain cell membranes; conditions: crude membranes of rat forebrain
# Procedure: The binding of [^3 H]glutamate was conducted with crude membranes of rat forebrain as described by Schoepp and True. Schoepp and True, Neuroscience Lett., 145, 100-104 (1992) and Wright et al., J. Neurochemisty 63: 938-945 (1994).
# [3] = mouse elevated plus maze model; format: in vivo
molecule,measurement,setting,value
"N[C@@]1(C(=O)O)[C@H](Cc2ccc(F)c(F)c2F)C[C@H]2[C@H](C(=O)O)[C@H]21 (relative stereo) [Example 25, 1SR,2SR,3SR,5RS,6SR-2-Amino-3-((2,3,4-trifluoro)benzyl)bicyclo[3.1.0]hexane-2,6-dicarboxylic acid]",neuroleptic properties in the mouse conditioned active avoidance response model,[1],neuroleptic properties
"Mixture of 1SR,2SR,3RS,5RS,6SR-2-amino-3-(3-phenylpropyl)bicyclo[3.1.0]-hexane-2,6-dicarboxylic acid and 1SR, 2RS, 3RS, 5RS, 6SR-2-amino-3-(3-phenylpropyl)bicyclo[3.1.0]hexane-2,6-dicarboxylic acid [Example 1]",IC50,[2],320 nM
"Cc1cccc(C[C@@H]2C[C@H]3[C@H](C(=O)O)[C@H]3[C@]2(N)C(=O)O)c1 (relative stereo) [Example 4, 1SR,2SR,3SR,5RS,6SR-Amino-3-((3-methyl)benzyl)bicyclo[3.1.0]hexane-2,6-dicarboxylic acid]",anxiolytic effect in the mouse elevated plus maze model,[3],anxiolytic effect

# From patent publication US5916920A, “3-substituted Bicyclo[3.1.0]hexane-6-carboxylic acids” (Eli Lilly and Company, priority 1996, dated 1999)
